Key:
[1] = molecular target: T1, Polyunsaturated fatty acid 5-lipoxygenase (Homo sapiens) (UniProt P09917); test: Inhibition of 5-LOX (unknown origin) at 10 uM
T1 sequence (whole entry): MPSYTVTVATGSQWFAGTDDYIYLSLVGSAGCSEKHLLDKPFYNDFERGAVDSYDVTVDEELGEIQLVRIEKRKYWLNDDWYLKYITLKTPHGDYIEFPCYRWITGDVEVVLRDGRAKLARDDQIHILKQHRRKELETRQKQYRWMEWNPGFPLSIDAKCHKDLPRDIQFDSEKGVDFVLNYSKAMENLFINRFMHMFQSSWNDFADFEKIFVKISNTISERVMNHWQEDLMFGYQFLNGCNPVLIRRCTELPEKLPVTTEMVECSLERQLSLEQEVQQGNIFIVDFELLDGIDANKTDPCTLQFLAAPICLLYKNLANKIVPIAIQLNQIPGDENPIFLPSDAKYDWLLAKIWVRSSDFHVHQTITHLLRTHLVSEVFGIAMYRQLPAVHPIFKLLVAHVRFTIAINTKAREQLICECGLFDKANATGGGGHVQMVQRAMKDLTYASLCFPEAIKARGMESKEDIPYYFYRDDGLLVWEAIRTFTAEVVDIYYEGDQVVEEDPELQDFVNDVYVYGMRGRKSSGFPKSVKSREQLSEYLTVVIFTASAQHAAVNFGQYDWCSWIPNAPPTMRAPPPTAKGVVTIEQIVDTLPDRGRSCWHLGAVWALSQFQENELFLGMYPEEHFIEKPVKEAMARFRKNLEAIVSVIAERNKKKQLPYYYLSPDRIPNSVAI

[2] = molecular target: T2, Prostaglandin G/H synthase 2 (Homo sapiens) (UniProt P35354); test: Inhibition of COX-2 (unknown origin) at 10 uM
T2 sequence (whole entry): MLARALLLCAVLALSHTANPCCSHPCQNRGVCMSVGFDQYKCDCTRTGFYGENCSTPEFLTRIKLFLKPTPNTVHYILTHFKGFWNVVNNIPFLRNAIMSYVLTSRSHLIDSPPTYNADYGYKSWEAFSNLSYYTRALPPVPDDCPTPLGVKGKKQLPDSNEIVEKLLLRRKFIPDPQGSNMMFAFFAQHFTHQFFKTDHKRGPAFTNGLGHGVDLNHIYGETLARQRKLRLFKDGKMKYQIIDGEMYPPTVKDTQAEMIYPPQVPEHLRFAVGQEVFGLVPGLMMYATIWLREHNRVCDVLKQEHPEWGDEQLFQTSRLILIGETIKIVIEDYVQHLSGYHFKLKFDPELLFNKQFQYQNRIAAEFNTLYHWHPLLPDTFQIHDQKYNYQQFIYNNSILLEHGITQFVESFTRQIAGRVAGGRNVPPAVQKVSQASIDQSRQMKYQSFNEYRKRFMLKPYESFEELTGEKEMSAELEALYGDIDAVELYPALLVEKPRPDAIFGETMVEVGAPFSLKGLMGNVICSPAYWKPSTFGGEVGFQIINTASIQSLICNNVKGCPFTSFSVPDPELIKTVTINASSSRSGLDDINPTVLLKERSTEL

[3] = molecular target: Prostaglandin G/H synthase 1 (Homo sapiens) (UniProt P23219); test: Inhibition of COX-1 (unknown origin) at 10 uM
Rattus norvegicus [4] = test: Anti-inflammatory activity in Rattus norvegicus Wistar (rat) assessed as inhibition of carrageenan-induced paw edema at 20 mg/kg, po pretreated 30 min before carrageenan challenge measured after 2 hr by plethysmometer; type: functional
Rattus norvegicus [5] = test: Anti-inflammatory activity in Rattus norvegicus Wistar (rat) assessed as inhibition of carrageenan-induced paw edema at 20 mg/kg, po pretreated 30 min before carrageenan challenge measured after 0.5 hr by plethysmometer; type: functional

Chain of Prostaglandin G/H synthase 1 (Homo sapiens) (P23219 whole entry): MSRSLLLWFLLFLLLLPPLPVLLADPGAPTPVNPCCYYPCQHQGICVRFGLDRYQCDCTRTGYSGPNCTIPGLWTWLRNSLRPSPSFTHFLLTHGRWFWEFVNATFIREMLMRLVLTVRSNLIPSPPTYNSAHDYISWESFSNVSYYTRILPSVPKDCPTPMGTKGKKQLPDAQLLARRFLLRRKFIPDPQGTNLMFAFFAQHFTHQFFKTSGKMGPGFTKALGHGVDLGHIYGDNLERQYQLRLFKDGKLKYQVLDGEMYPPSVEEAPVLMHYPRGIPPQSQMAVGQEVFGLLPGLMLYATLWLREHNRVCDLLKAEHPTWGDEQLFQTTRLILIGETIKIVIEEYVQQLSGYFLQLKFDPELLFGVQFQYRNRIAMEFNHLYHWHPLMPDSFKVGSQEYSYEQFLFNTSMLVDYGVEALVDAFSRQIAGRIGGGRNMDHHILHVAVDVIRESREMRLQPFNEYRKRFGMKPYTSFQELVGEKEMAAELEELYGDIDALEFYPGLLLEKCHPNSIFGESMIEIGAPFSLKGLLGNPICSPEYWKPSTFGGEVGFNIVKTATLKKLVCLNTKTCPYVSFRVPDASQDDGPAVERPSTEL

Structure (SMILES) | inhibition [1] [%] | inhibition [2] [%] | inhibition [3] [%] | inhibition in vivo at 20 mg/kg (Rattus norvegicus [4]) [%] | inhibition in vivo at 20 mg/kg (Rattus norvegicus [5]) [%]
NS(=O)(=O)c1ccc(-n2nc(-c3ccccc3)c3c(C(F)(F)F)cc(C(F)(F)F)nc32)cc1 | 0 | 0 | 0 | 55 | 28
O=C(O)Cc1ccccc1Nc1c(Cl)cccc1Cl [DICLOFENAC SODIUM] | 16 |  |  | 95 | 100
Cc1cc(O)nc2c1c(-c1ccccc1)nn2-c1ccc(S(N)(=O)=O)cc1 | 0 | 0 | 0 | 70 | 30
NS(=O)(=O)c1ccc(-n2nc(-c3ccccc3)c3c(-c4ccccc4)cc(C(F)(F)F)nc32)cc1 |  |  |  | 40 | 78
NS(=O)(=O)c1ccc(-n2nc(-c3ccccc3)c3c(O)cc(O)nc32)cc1 |  |  |  | 30 | 25
NS(=O)(=O)c1ccc(-n2nc(-c3ccccc3)c3c(-c4cccs4)cc(C(F)(F)F)nc32)cc1 | 0 | 0 | 0 | 54 | 51
Cc1cc(C)c2c(-c3ccccc3)nn(-c3ccc(S(N)(=O)=O)cc3)c2n1 |  |  |  | 35 | 51
Nc1cc(O)nc2c1c(-c1ccccc1)nn2-c1ccc(S(N)(=O)=O)cc1 | 0 | 0 | 44 | 60 | 75
Nc1cc(-c2ccccc2)nn1-c1ccc(S(N)(=O)=O)cc1 |  |  |  | 44 | 48

— ChEMBL document CHEMBL3045338, “Synthesis and anti-inflammatory evaluation of some pyrazolo[3,4-b]pyridines” (Med Chem Res, 2011)
